Source: PMC8092876, “A Leucyl-tRNA Synthetase Inhibitor with Broad-Spectrum Antimycobacterial Activity” (Antimicrobial Agents and Chemotherapy, 2021)
In brackets after ≈: the same amount, converted by molar mass. Several values for one entry are separate records, joined by “and”; a condition that tells them apart may be missing. Equal values may be shown once. Read-outs that look alike come from different tables or passages of the source.

Columns and labels:
[1] = test system: M. abscessus Bamboo RM5 (LeuS V417M); assay: microbe, parasite or virus in culture; format: cell-based; conditions: Mycobacteroides abscessus, RM5, batch 2, LeuS V417M
[2] = test system: M. abscessus Bamboo RM2 (LeuS K502E); assay: microbe, parasite or virus in culture; format: cell-based; conditions: Mycobacteroides abscessus
[3] = test system: M. abscessus Bamboo biofilms; assay: Biofilm growth inhibition assay (biofilm MIC and MBC); format: cell-based, M. abscessus subsp. abscessus; conditions: Mycobacteroides abscessus
Method: The biofilm growth inhibition assay was performed as previously described ([40]). Innovotech MBEC 96-well biofilm assay plates (Innovotech 19111, Edmonton, AB, Canada) were used, and the supplier’s manual was followed with minor modifications. Mid-log-phase M. abscessus Bamboo precultures (OD600 = 0.4 to 0.6) were spun down at 3200 × g for 10 min at 25°C and washed with 7H9 medium without Tween 80 (7H9nt). Bacteria were resuspended into 25 ml 7H9nt to an OD600 of 0.0125 (1.0 × 10^6 CFU/ml). […] The lids with the pegs were transferred to a new MBEC multititer plate containing 150 μl of fresh 7H9nt medium per well without bacteria (0 h time point). After that, the pegs with growing biofilm were transferred once a day to a new multititer plate containing fresh 7H9nt medium. To measure growth of the biofilm formed on the peg, the pegs were washed in 200 μl of 7H9nt medium before they were aseptically removed and placed in 1.7 ml microcentrifuge tubes (VWR 87003-294, Rador, PA, United States) containing 500 μl PBS/Tween 80. The microcentrifuge tubes were vigorously vortexed at 2,000 rpm for 90 s at 25°C to detach the bacteria from the pegs before samples were serially diluted and plated for the determination of CFU/peg. […] The average drug-free biofilm growth was calculated by subtracting the average 24 h CFU/peg value from the average 72 h CFU/peg value for the untreated control pegs. The biofilm MIC was defined as the lowest drug concentration that reduced the CFU/peg by 90% relative to that of the average drug-free biofilm growth.

[4] = test system: M. abscessus subsp. abscessus M404; assay: MIC assay in 96-well plate format; format: cell-based; conditions: Mycobacteroides abscessus; M. abscessus subsp. abscessus M404, clinical isolate
[5] = test system: M. abscessus subsp. massiliense M111; assay: MIC assay in 96-well plate format; format: cell-based; conditions: Mycobacteroides abscessus; M. abscessus subsp. massiliense M111, clinical isolate
[6] = test system: M. abscessus subsp. abscessus ATCC 19977; assay: MIC assay in 96-well plate format; format: cell-based; conditions: Mycobacteroides abscessus, ATCC19977; M. abscessus subsp. abscessus ATCC 19977, culture collection reference strain
[7] = test system: M. abscessus subsp. abscessus M9; assay: MIC assay in 96-well plate format; format: cell-based; conditions: Mycobacteroides abscessus; M. abscessus subsp. abscessus M9, clinical isolate
M. chimaera CCUG 50989T = assay: MIC assay in 96-well plate format; format: cell-based; conditions: CCUG50989T, culture collection reference strain
[8] = test system: M. abscessus subsp. abscessus M199; assay: MIC assay in 96-well plate format; format: cell-based; conditions: Mycobacteroides abscessus; M. abscessus subsp. abscessus M199, clinical isolate
[9] = test system: M. abscessus subsp. bolletii M232; assay: MIC assay in 96-well plate format; format: cell-based; conditions: Mycobacteroides abscessus; M. abscessus subsp. bolletii M232, clinical isolate
[10] = test system: M. abscessus subsp. bolletii CCUG 50184T; assay: MIC assay in 96-well plate format; format: cell-based; conditions: Mycobacteroides abscessus, culture collection reference strain
[11] = test system: M. abscessus subsp. bolletii M506; assay: MIC assay in 96-well plate format; format: cell-based; conditions: Mycobacteroides abscessus; M. abscessus subsp. bolletii M506, clinical isolate
M. abscessus Bamboo [12] = assay: MIC and MBC determination in culture tubes (planktonic)
Method: M. abscessus Bamboo culture was grown to mid-log-phase (OD600 = 0.4 to 0.6) and diluted to OD600 = 0.1 (1 × 10^7 CFU/ml). Aliquots of 1.2 ml of the resulting bacteria suspension were transferred into 14 ml vented, round-bottom tubes (Thermo Fisher 150268, Rochester, NY, United States). A 10-point 2-fold dilution series of the compound was prepared, starting at 100 times the desired highest concentration. The compound concentration range tested was 100 to 0.195 μM. For each drug concentration tested, 12 μl of drug stock was added to two tubes and vortexed. Aliquots of 12 μl of DMSO were added to two tubes as the untreated controls (1% final DMSO concentration). From each tube, 200 μl was transferred to wells on a 96-well plate and the OD600 was measured using a Tecan Infinite M200 plate reader (day 0 reading). The tubes (1 ml final volume) were incubated on a tilted rack at 37°C on an orbital shaker at 220 rpm. On day 2, tubes were vortexed before transferring 200 μl onto a 96-well plate to measure the OD600 again (day 2 reading). To determine the MIC, day 0 and day 2 OD600 values were analyzed as previously described for MIC determination in 96-well plate format. To determine the MBC, CFU measurement was done for the OD600 = 0.1 bacteria suspension on day 0 and for each tube on day 2. Specifically, serial 10-fold dilutions were prepared in phosphate-buffered saline (Thermo Fisher 10010023) containing 0.025% Tween 80 (PBS/Tween 80) and plated on 7H10 agar. The MBC was defined as the lowest concentration of drug that reduced the CFU/ml value by 10-fold relative to the day 0 CFU/ml value.

[13] = test system: M. abscessus subsp. abscessus M422; assay: MIC assay in 96-well plate format; format: cell-based; conditions: Mycobacteroides abscessus; M. abscessus subsp. abscessus M422, clinical isolate
[14] = test system: M. abscessus subsp. abscessus K21; assay: MIC assay in 96-well plate format; format: cell-based; conditions: Mycobacteroides abscessus; M. abscessus subsp. abscessus K21, clinical isolate, infection model
[15] = test system: M. abscessus Bamboo RM3 (LeuS V417M); assay: microbe, parasite or virus in culture; format: cell-based; conditions: Mycobacteroides abscessus, RM3, batch 1, LeuS V417M
[16] = test system: M. abscessus subsp. massiliense CCUG 48898T; assay: MIC assay in 96-well plate format; format: cell-based; conditions: Mycobacteroides abscessus, culture collection reference strain
[17] = test system: M. abscessus Bamboo RM4 (LeuS T327R); assay: microbe, parasite or virus in culture; format: cell-based; conditions: Mycobacteroides abscessus
M. abscessus Bamboo [18] = assay: MIC assay in 96-well plate format; format: cell-based, M. abscessus subsp. abscessus; conditions: Mycobacteroides abscessus
[19] = test system: M. intracellulare ATCC 13950; assay: MIC assay in 96-well plate format; format: cell-based; conditions: Mycobacterium intracellulare, ATCC13950; M. intracellulare ATCC 13950, culture collection reference strain
M. avium 11 = assay: MIC assay in 96-well plate format; format: cell-based, M. avium subsp. hominissuis
[20] = test system: M. abscessus subsp. abscessus M337; assay: MIC assay in 96-well plate format; format: cell-based; conditions: Mycobacteroides abscessus; M. abscessus subsp. abscessus M337, clinical isolate
[21] = test system: M. abscessus Bamboo RM1 (LeuS A428P); assay: microbe, parasite or virus in culture; format: cell-based; conditions: Mycobacteroides abscessus
[22] = test system: M. tuberculosis H37Rv ATCC 27294; set-up: method as in PMID 28953378; conditions: 7H9; cited from earlier work
[23] = test system: M. tuberculosis H37Rv ATCC 27294; assay: MIC assay in 96-well plate format; format: cell-based; conditions: Mycobacterium tuberculosis, 168 h

CC[C@H]1OC(=O)[C@H](C)[C@@H](O[C@H]2C[C@@](C)(OC)[C@@H](O)[C@H](C)O2)[C@H](C)[C@@H](O[C@@H]2O[C@H](C)C[C@H](N(C)C)[C@H]2O)[C@](C)(OC)C[C@@H](C)C(=O)[C@H](C)[C@@H](O)[C@]1(C)O [CLR, clarithromycin, reference compound]
MIC [1]: 0.46 µM (≈ 0.344 µg/mL) | MIC [2]: 0.38 µM (≈ 0.284 µg/mL) | MBC ([3]; 10-fold CFU/peg reduction vs 24 h): > 100 µM | MIC ([3]; 48 h with drug, 90% reduction of CFU/peg growth): 1.6 µM (≈ 1.2 µg/mL) | MIC [4]: 0.2 µM (≈ 0.15 µg/mL) | MIC [5]: 0.24 µM (≈ 0.18 µg/mL) | MIC [6]: 0.9 µM (≈ 0.673 µg/mL) | MIC [7]: 0.73 µM (≈ 0.546 µg/mL) | MIC (M. chimaera CCUG 50989T): 0.19 µM (≈ 0.142 µg/mL) | MIC [8]: 2.7 µM (≈ 2.02 µg/mL) | MIC [9]: 0.95 µM (≈ 0.711 µg/mL) | MIC [10]: 2.5 µM (≈ 1.87 µg/mL) | MIC [11]: 0.28 µM (≈ 0.209 µg/mL) | MBC (M. abscessus Bamboo [12]; Mycobacteroides abscessus): > 100 µM | MIC (M. abscessus Bamboo [12]; Mycobacteroides abscessus, 48 h): 0.28 µM (≈ 0.209 µg/mL) | MBC (M. abscessus Bamboo [12]; planktonic M. abscessus Bamboo in culture tubes, day 2, 10-fold CFU/ml reduction vs day 0): >100 µM | MIC [13]: 0.65 µM (≈ 0.486 µg/mL) | MIC [14]: 0.4 µM (≈ 0.299 µg/mL) | MIC [15]: 0.43 µM (≈ 0.322 µg/mL) | MIC [16]: 0.19 µM (≈ 0.142 µg/mL) | MIC [17]: 0.42 µM (≈ 0.314 µg/mL) | MIC (M. abscessus Bamboo [18]): 0.31 µM (≈ 0.232 µg/mL) | MIC (M. abscessus Bamboo [18]; 72 h, M. abscessus Bamboo, 7H9, 3 days, read-out: MIC): 0.23 µM (≈ 0.172 µg/mL) | MIC (M. abscessus Bamboo [18]; 72 h, M. abscessus Bamboo, CAMH broth, 3 days, read-out: MIC): 0.07 µM (≈ 0.0524 µg/mL) | MIC [19]: 0.15 µM (≈ 0.112 µg/mL) | MIC (M. avium 11; Mycobacterium avium, 96 h, M. avium 11, 7H9, 4 days, read-out: MIC): 0.3 µM (≈ 0.224 µg/mL) | MIC [20]: 0.9 µM (≈ 0.673 µg/mL) | MIC [21]: 0.36 µM (≈ 0.269 µg/mL)

NC[C@H]1OB(O)c2c(OCCO)ccc(Cl)c21 [GSK656, (S)-3-(aminomethyl)-4-chloro-7–(2-hydroxyethoxy)benzo[c][1,2]oxaborol-1(3H)-ol]
MIC (M. abscessus Bamboo [18]; 72 h, read-out: MIC): 0.27 µM (≈ 0.0695 µg/mL) | MIC [22]: 0.08 μM and 0.08^d μM | MIC (M. avium 11; Mycobacterium avium, 11, 96 h): > 50 µM

CO[C@H]1/C=C/O[C@@]2(C)Oc3c(C)c(O)c4c(O)c(c(/C=N/N5CCN(C)CC5)c(O)c4c3C2=O)NC(=O)/C(C)=C\C=C\[C@H](C)[C@H](O)[C@@H](C)[C@@H](O)[C@@H](C)[C@H](OC(C)=O)[C@@H]1C [rifampin, reference compound]
MIC [23]: 0.66 µM (≈ 0.543 µg/mL)
